These results are taken from US20150216806A1, “LAXATIVE COMPOSITIONS AND METHODS FOR TREATING CONSTIPATION AND RELATED GASTROINTESTINAL DISEASES AND CONDITIONS” (SALIX PHARMACEUTICALS, INC., priority 2012, published 2015).

The subject of the assay is patient with chronic constipation. Kind of assay: Example 7: case report, bisoxatin added to colchicine in chronic constipation. The format is in vivo, human. Particulars: 1 mg in the morning and 1.5 in the evening; still missing a day here and there. The method, then:
They were given added bisoxatin of 120 mg twice daily. […] They were going too well however and the bisoxatin had to be cut back 120 mg mane. For a week or so they were able to take the bisoxatin 120 in the morning and every second day 120 at night. They continued with the treatment for 3 or 4 weeks to date.

As to `COc1cc2c(c(OC)c1OC)-c1ccc(OC)c(=O)cc1[C@@H](NC(C)=O)CC2` [colchicine], the “response of constipation to colchicine alone” value was “did not respond”.
